According to patent publication US8735322B2, “Herbicides” (Syngenta Limited, priority 2008, dated 2014):

Columns and labels:
Assay type in all cases: in vivo
[1] = system: Alopecurus myosuroides (ALOMY); experiment: Example A post-emergence herbicidal activity, glasshouse pot test; details: 360 h, evaluated 15 days after spraying, read-out: herbicidal damage ALOMY (100=total damage to plant; 0=no damage to plant); for pest or weed control at 125 g/ha: rate 125 g/ha
Method: (§1) Seeds of a variety of test species were sown in standard soil in pots. After cultivation for one day (pre-emergence) or after 10 days cultivation (post-emergence) under controlled conditions in a glasshouse, the plants were sprayed with an aqueous spray solution derived from the formulation of the technical active ingredient in 0.6 ml acetone and 45 ml formulation solution containing 10.6% Emulsogen EL (Registry number 61791-12-6), 42.2% N-methylpyrrolidone, 42.2% dipropylene glycol monomethyl ether (Registry number 34590-94-8) and 0.2% X-77 (Registry number 11097-66-8). The test plants were then grown in a greenhouse under optimum conditions until, 15 days later for post-emergence and 20 days for pre-emergence, the test was evaluated (100=total damage to plant; 0=no damage to plant). Alopecurus myosuroides (ALOMY), Avena fatua (AVEFA), Lolium perenne (LOLPE), Setaria faberi (SETFA), Digitaria sanguinalis (DIGSA), Echinochloa crus-galli (ECHCG) Post Emergency Activity

Avena fatua (AVEFA) [2] = experiment: as above; details: 360 h, evaluated 15 days after spraying, read-out: herbicidal damage AVEFA (100=total damage to plant; 0=no damage to plant); for pest or weed control at 125 g/ha: rate 125 g/ha
Method: as §1

Lolium perenne (LOLPE) [3] = experiment: as above; details: 360 h, evaluated 15 days after spraying, read-out: herbicidal damage LOLPE (100=total damage to plant; 0=no damage to plant); for pest or weed control at 125 g/ha: rate 125 g/ha
Method: as §1

Setaria faberi (SETFA) [4] = experiment: as above; details: 360 h, evaluated 15 days after spraying, read-out: herbicidal damage SETFA (100=total damage to plant; 0=no damage to plant); for pest or weed control at 125 g/ha: rate 125 g/ha
Method: as §1

[5] = system: Echinochloa crus-galli (ECHCG); experiment: as above; details: 360 h, evaluated 15 days after spraying, read-out: herbicidal damage ECHCG (100=total damage to plant; 0=no damage to plant); for pest or weed control at 125 g/ha: rate 125 g/ha
Method: as §1

[6] = system: Digitaria sanguinalis (DIGSA); experiment: as above; details: 360 h, evaluated 15 days after spraying, read-out: herbicidal damage DIGSA (100=total damage to plant; 0=no damage to plant); for pest or weed control at 125 g/ha: rate 125 g/ha
Method: as §1

[7] = system: Alopecurus myosuroides (ALOMY); experiment: Example A pre-emergence herbicidal activity, glasshouse pot test; details: 480 h, rate 500 g/ha, evaluated 20 days later, 100=total damage to plant, 0=no damage to plant
Method: as §1, with “Pre-Emergence” for “Post Emergency”

Avena fatua (AVEFA) [8] = experiment: as above; details: 480 h, rate 500 g/ha, evaluated 20 days later, 100=total damage to plant, 0=no damage to plant
Method: as §1, with “Pre-Emergence” for “Post Emergency”

Lolium perenne (LOLPE) [9] = experiment: as above; details: 480 h, rate 500 g/ha, evaluated 20 days later, 100=total damage to plant, 0=no damage to plant
Method: as §1, with “Pre-Emergence” for “Post Emergency”

Setaria faberi (SETFA) [10] = experiment: as above; details: 480 h, rate 500 g/ha, evaluated 20 days later, 100=total damage to plant, 0=no damage to plant
Method: as §1, with “Pre-Emergence” for “Post Emergency”

[11] = system: Echinochloa crus-galli (ECHCG); experiment: as above; details: 480 h, rate 500 g/ha, evaluated 20 days later, 100=total damage to plant, 0=no damage to plant
Method: as §1, with “Pre-Emergence” for “Post Emergency”

[12] = system: Digitaria sanguinalis (DIGSA); experiment: as above; details: 480 h, rate 500 g/ha, evaluated 20 days later, 100=total damage to plant, 0=no damage to plant
Method: as §1, with “Pre-Emergence” for “Post Emergency”

[13] = system: Alopecurus myosuroides (ALOMY); experiment: Example B post-emergence herbicidal activity, glasshouse pot test; details: 312 h, rate 1000 g/ha, evaluated after 13 days, read-out: herbicidal damage ALOMY (100=total damage to plant; 0=no damage to plant)
Method: (§2) Seeds of a variety of test species were sown in standard soil in pots. After cultivation for one day (pre-emergence) or after 8 days cultivation (post-emergence) under controlled conditions in a glasshouse (at 24/16° C., day/night; 14 hours light; 65% humidity), the plants were sprayed with an aqueous spray solution derived from the formulation of the technical active ingredient in acetone/water (50:50) solution containing 0.5% Tween 20 (polyoxyethelyene sorbitan monolaurate, CAS RN 9005-64-5). The test plants were then grown in a glasshouse under controlled conditions in a glasshouse (at 24/16° C., day/night; 14 hours light; 65% humidity) and watered twice daily. After 13 days for pre and post-emergence, the test was evaluated (100=total damage to plant; 0=no damage to plant). Alopecurus myosuroides (ALOMY), Avena fatua (AVEFA), Setaria faberi (SETFA), Echinochloa crus-galli (ECHCG), Solanum nigrum (SOLNI) and Amaranthus retroflexus (AMARE) Post-Emergence Activity

Avena fatua (AVEFA) [14] = experiment: as above; details: 312 h, rate 1000 g/ha, evaluated after 13 days, read-out: herbicidal damage AVEFA (100=total damage to plant; 0=no damage to plant)
Method: as §2

[15] = system: Amaranthus retroflexus (AMARE); experiment: as above; details: 312 h, rate 1000 g/ha, evaluated after 13 days, read-out: herbicidal damage AMARE (100=total damage to plant; 0=no damage to plant)
Method: as §2

Setaria faberi (SETFA) [16] = experiment: as above; details: 312 h, rate 1000 g/ha, evaluated after 13 days, read-out: herbicidal damage SETFA (100=total damage to plant; 0=no damage to plant)
Method: as §2

[17] = system: Echinochloa crus-galli (ECHCG); experiment: as above; details: 312 h, rate 1000 g/ha, evaluated after 13 days, read-out: herbicidal damage ECHCG (100=total damage to plant; 0=no damage to plant)
Method: as §2

Solanum nigrum (SOLNI) [18] = experiment: as above; details: 312 h, rate 1000 g/ha, evaluated after 13 days, read-out: herbicidal damage SOLNI (100=total damage to plant; 0=no damage to plant)
Method: as §2

[19] = system: Alopecurus myosuroides (ALOMY); experiment: Example B pre-emergence herbicidal activity, glasshouse pot test; details: 312 h, rate 1000 g/ha, evaluated after 13 days, read-out: herbicidal damage ALOMY (100=total damage to plant; 0=no damage to plant)
Method: as §2, with “Pre-Emergence” for “Post-Emergence”

Avena fatua (AVEFA) [20] = experiment: as above; details: 312 h, rate 1000 g/ha, evaluated after 13 days, read-out: herbicidal damage AVEFA (100=total damage to plant; 0=no damage to plant)
Method: as §2, with “Pre-Emergence” for “Post-Emergence”

[21] = system: Amaranthus retroflexus (AMARE); experiment: as above; details: 312 h, rate 1000 g/ha, evaluated after 13 days, read-out: herbicidal damage AMARE (100=total damage to plant; 0=no damage to plant)
Method: as §2, with “Pre-Emergence” for “Post-Emergence”

Setaria faberi (SETFA) [22] = experiment: as above; details: 312 h, rate 1000 g/ha, evaluated after 13 days, read-out: herbicidal damage SETFA (100=total damage to plant; 0=no damage to plant)
Method: as §2, with “Pre-Emergence” for “Post-Emergence”

[23] = system: Echinochloa crus-galli (ECHCG); experiment: as above; details: 312 h, rate 1000 g/ha, evaluated after 13 days, read-out: herbicidal damage ECHCG (100=total damage to plant; 0=no damage to plant)
Method: as §2, with “Pre-Emergence” for “Post-Emergence”

Solanum nigrum (SOLNI) [24] = experiment: as above; details: 312 h, rate 1000 g/ha, evaluated after 13 days, read-out: herbicidal damage SOLNI (100=total damage to plant; 0=no damage to plant)
Method: as §2, with “Pre-Emergence” for “Post-Emergence”

Row | SMILES | pest or weed control at 500 g/ha [7] [%] | pest or weed control at 500 g/ha (Avena fatua (AVEFA) [8]) [%] | pest or weed control at 500 g/ha (Lolium perenne (LOLPE) [9]) [%] | pest or weed control at 500 g/ha (Setaria faberi (SETFA) [10]) [%] | pest or weed control at 500 g/ha [11] [%] | pest or weed control at 500 g/ha [12] [%] | pest or weed control at 125 g/ha [1] [%] | pest or weed control at 125 g/ha (Avena fatua (AVEFA) [2]) [%] | pest or weed control at 125 g/ha (Lolium perenne (LOLPE) [3]) [%] | pest or weed control at 125 g/ha (Setaria faberi (SETFA) [4]) [%] | pest or weed control at 125 g/ha [5] [%] | pest or weed control at 125 g/ha [6] [%] | also measured
1 | Cc1ccc(-c2ccc(Cl)cc2)cc1C1=C(O)CC(C(C)C2CCOCC2)CC1=O (stereo not drawn) [Compound A-15] | 10 | 40 | 0 | 20 | 10 | 20 | – | – | – | – | – | – | pest or weed control at 500 g/ha ([1]; rate 500 g/ha): 60%; pest or weed control at 500 g/ha (Avena fatua (AVEFA) [2]; rate 500 g/ha): 30%; pest or weed control at 500 g/ha (Lolium perenne (LOLPE) [3]; rate 500 g/ha): 30%; pest or weed control at 500 g/ha (Setaria faberi (SETFA) [4]; rate 500 g/ha): 30%; pest or weed control at 500 g/ha ([5]; rate 500 g/ha): 50%; pest or weed control at 500 g/ha ([6]; rate 500 g/ha): 70%
2 | CCc1cc(C)cc(CC)c1C1=C(O)CC(CC2CCS(=O)(=O)CC2)CC1=O (stereo not drawn) [Compound A-17] | 100 | 100 | 100 | 100 | 100 | 100 | 90 | 100 | 90 | 50 | 100 | 80 | –
3 | CCc1cc(C)cc(CC)c1C1=C(O)CC(C(C)C2CCOC2)CC1=O (stereo not drawn) [Compound A-18] | 90 | 100 | 100 | 100 | 100 | 100 | 100 | 90 | 100 | 50 | 100 | 80 | –
4 | CCc1cc(CC)c(C2=C(O)CC(CC3CCOCC3)CC2=O)c(CC)c1 (stereo not drawn) [Compound A-19] | 100 | 60 | 100 | 100 | 100 | 100 | 70 | 20 | 70 | 60 | 70 | 60 | –
5 | CCc1ccc(-c2ccc(Cl)cc2)cc1C1=C(O)CC(CC2CCOCC2)CC1=O (stereo not drawn) [Compound A-20] | 50 | 10 | 40 | 70 | 100 | 40 | 40 | 60 | 40 | 80 | 100 | 100 | –
6 | CCc1ccccc1C1=C(O)CC(CC2CCOCC2)CC1=O (stereo not drawn) [Compound A-31] | 60 | 50 | 40 | 100 | 70 | 100 | 60 | 60 | 60 | 40 | 50 | 30 | pest or weed control at 1000 g/ha [13]: 100%; pest or weed control at 1000 g/ha (Avena fatua (AVEFA) [14]): 90%; pest or weed control at 1000 g/ha [15]: 0%; pest or weed control at 1000 g/ha (Setaria faberi (SETFA) [16]): 100%; pest or weed control at 1000 g/ha [17]: 100%; pest or weed control at 1000 g/ha (Solanum nigrum (SOLNI) [18]): 0%; pest or weed control at 1000 g/ha [19]: 100%; pest or weed control at 1000 g/ha (Avena fatua (AVEFA) [20]): 40%; pest or weed control at 1000 g/ha [21]: 0%; pest or weed control at 1000 g/ha (Setaria faberi (SETFA) [22]): 100%; pest or weed control at 1000 g/ha [23]: 100%; pest or weed control at 1000 g/ha (Solanum nigrum (SOLNI) [24]): 0%
